Experiments:
[1] = Liver Microsome Stability Assay (monkey); settings: monkey liver microsomes, with NADPH, 1.0 uM compound
Description: (§1) Stability of a compound was assessed in the presence of liver microsomes from various sources—mouse, rat, monkey and human liver microsomes. 1.0 uM compound, 0.4% DMSO in 0.1 M Potassium Phosphate with 1.0 mg/mL liver microsomes, were incubated at 37° C. with or without 1 mM NADPH. The samples were quenched at 0, and 30 minutes.

[2] = tested on: multiple myeloma cell line U266B1; experiment: U266 Cell Viability Assay; format: cell-based, human; settings: Homo sapiens, U-266, 48 h, U266B1 cells, Celltiter-Glo
How it was run: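 48 h treatment, 37° C./5% CO2, RPMI 1640 + 10% FBS; viability by CellTiter-Glo luminescence.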

[3] = Liver Microsome Stability Assay (mouse); settings: mouse liver microsomes, with NADPH, 1.0 uM compound
Description: as §1

[4] = tested on: IL-2-FL/Gaussia Luciferase; experiment: Dox Induced IL2-FL-Gluc Assay; format: cell-based; settings: for IC50: 24 hr Dox induction, 293FRT/TO cells, read-out: 24 hr Dox Inducible IL2FLGluc 293FRT/TO: Mean IC50; for 24 hr Dox Inducible IL2FLGluc 293FRT/TO: IL2/PD1: ratio of IL2FLGluc IC50 to PD1ssGluc IC50
How it was run: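 Reporter is Gaussia luciferase fused to the 3′ end of full-length IL-2 (aa 1-153), expressed from a doxycycline-inducible T-REx construct in stably selected Flp-In 293 cells. Compounds were co-added with doxycycline and incubated at 37° C, 5% CO2.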

[5] = Liver Microsome Stability Assay (rat); settings: rat liver microsomes, with NADPH, 1.0 uM compound
Description: as §1

[6] = tested on: PD1-ss+10aa/Gaussia Luciferase; experiment: Dox-Induced PD1-ss-Gluc Assay; format: cell-based; settings: 24 hr Dox induction; 293FRT/TO cells; read-out: 24 hr Dox Inducible PD1ssGluc 293FRT/TO: Mean IC50
How it was run: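 The cell line was made by transfecting Flp-In 293 T-REx cells with a PD1 signal sequence+10aa–Gaussia luciferase fusion under T-REx control and selecting with hygromycin and blasticidin. Cells were seeded, and next day compound plus doxycycline was added at 37 °C, 5% CO2.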

[7] = tested on: multiple myeloma cell line NCI-H929; experiment: H929 Cell Viability Assay; format: cell-based, human; settings: Homo sapiens, NCI-H929, 48 h, NCI-H929 cells, Celltiter-Glo
How it was run: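 Plate the myeloma cells in RPMI 1640 with 10% FBS, add serially diluted compound, incubate for 48 hours at 37° C, then add CellTiter-Glo and read luciferase signal.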

[8] = tested on: TNFα-FL/Gaussia Luciferase; experiment: Dox Induced TNFα-FL-Gluc Assay; format: cell-based; settings: for IC50: 24 hr Dox induction, 293FRT/TO cells, read-out: 24 hr Dox Inducible TNFaFLGluc 293FRT/TO: Mean IC50; for 24 hr Dox Inducible TNFaFLGluc 293FRT/TO: TNF/PD1: ratio of TNFaFLGluc IC50 to PD1ssGluc IC50
How it was run: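 Cells are seeded one day ahead, then treated with compound plus doxycycline at 37 °C, 5% CO2. The stable Flp-In 293 T-REx line expresses full-length TNFα (amino acids 1-233) with Gaussia luciferase fused to its 3′ end, inducibly via T-REx.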

[9] = tested on: HER3-ss+4aa/Gaussia Luciferase; experiment: Dox-Induced Her3-ss-Gluc Assay; format: cell-based; settings: 24 hr Dox induction; 293FRT/TO cells; read-out: 24 hr Dox Inducible Her3(ss + 4)Gluc 293FRT/TO: Mean IC50
How it was run: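 Expression of a Gaussia luciferase reporter carrying the HER3 signal sequence plus 4 amino acids is induced by doxycycline in stably transfected Flp-In 293 T-REx cells. Compounds are added with doxycycline at 37° C., 5% CO2. Undefined stereocentres denote stereoisomer mixtures.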

[10] = Liver Microsome Stability Assay (human); settings: human liver microsomes, with NADPH, 1.0 uM compound
Description: as §1

Row | Compound | Liver Microsome Stability (Multiple Species): Monkey - % Remaining after 30 min w/NADPH [1] [%] | EC50 [2] [nM] | Liver Microsome Stability (Multiple Species): Mouse - % Remaining after 30 min w/NADPH [3] [%] | IC50 [4] [nM] | 24 hr Dox Inducible IL2FLGluc 293FRT/TO: IL2/PD1 [4] | Liver Microsome Stability (Multiple Species): Rat - % Remaining after 30 min w/NADPH [5] [%] | IC50 [6] [nM] | EC50 [7] [nM] | IC50 [8] [nM] | 24 hr Dox Inducible TNFaFLGluc 293FRT/TO: TNF/PD1 [8] | IC50 [9] [nM] | Liver Microsome Stability (Multiple Species): Human - % Remaining after 30 min w/NADPH [10] [%]
1 | CN(C)S(=O)(=O)N1CC(Oc2ccc(N3CCC[C@@H]3c3csc(NC(=O)c4cccn4Cc4ccnc(F)c4)n3)cc2)C1 [Compound A148, (R)-N-(4-(1-(4-((1-(N,N-dimethylsulfamoyl)azetidin-3-yl)oxy)phenyl)pyrrolidin-2-yl)thiazol-2-yl)-1-((2-fluoropyridin-4-yl)methyl)-1H-pyrrole-2-carboxamide] | 0.84 | 11100 | 4.79 | 87.2 | 1.9 | 28.3 | 45.9 | 1660 | 579 | 12.6 | 73 | 7.55
2 | N#Cc1cc(C(=O)Nc2nc([C@H]3CCCN3c3ccccc3)cs2)n(Cc2ccnc(F)c2)c1 [Compound A149, (R)-4-cyano-1-((2-fluoropyridin-4-yl)methyl)-N-(4-(1-phenylpyrrolidin-2-yl)thiazol-2-yl)-1H-pyrrole-2-carboxamide] | 9.8 | 4390 | 46 | 152 | 2.2 | 17.1 | 68.1 | 2540 | 1010 | 14.9 | 126 | 25.9
3 | NS(=O)(=O)N1CC(Oc2ccc(N3CCC[C@@H]3c3csc(NC(=O)c4cccn4Cc4ccnc(F)c4)n3)cc2)C1 [Compound A150, (R)-1-((2-fluoropyridin-4-yl)methyl)-N-(4-(1-(4-((1-sulfamoylazetidin-3-yl)oxy)phenyl)pyrrolidin-2-yl)thiazol-2-yl)-1H-pyrrole-2-carboxamide] | 0.71 | > 25000 | 36.3 | 130 | 2.6 | 51.6 | 49.2 | 3270 | 758 | 15.4 | 82.1 | 17.4
4 | CNS(=O)(=O)N1CC(Oc2ccc(N3CCC[C@@H]3c3csc(NC(=O)c4cccn4Cc4ccnc(F)c4)n3)cc2)C1 [Compound A151, (R)-1-((2-fluoropyridin-4-yl)methyl)-N-(4-(1-(4-((1-(N-methylsulfamoyl)azetidin-3-yl)oxy)phenyl)pyrrolidin-2-yl)thiazol-2-yl)-1H-pyrrole-2-carboxamide] | 0.95 | > 25000 | 15.3 | 59 | 2.7 | 38.3 | 21.5 | 1390 | 386 | 17.9 | 43.1 | 7.69
5 | NC(=O)c1cc(C(=O)Nc2nc([C@H]3CCCN3c3ccccc3)cs2)n(Cc2ccnc(F)c2)c1 [Compound A152, (R)-1-((2-fluoropyridin-4-yl)methyl)-N2-(4-(1-phenylpyrrolidin-2-yl)thiazol-2-yl)-1H-pyrrole-2,4-dicarboxamide] | 28.1 | > 25000 | 48.9 | 3280 | 1.4 | 24.1 | 2410 | 13200 | > 25000 | >10.4 | 2130 | 44.4
6 | C[S+]([O-])N1CC(Oc2ccc(N3CCC[C@@H]3c3csc(NC(=O)c4cccn4Cc4ccnc(F)c4)n3)cc2)C1 (stereo partly drawn) [Compound A153, 1-((2-fluoropyridin-4-yl)methyl)-N-(4-((2R)-1-(4-((1-(methylsulfinyl)azetidin-3-yl)oxy)phenyl)pyrrolidin-2-yl)thiazol-2-yl)-1H-pyrrole-2-carboxamide] | 2.49 | > 25000 | 1.09 | 90.4 | 2.4 | 19.8 | 37.4 | 1020 | 877 | 23.5 | 64.8 | 1.88
7 | CC(=O)N1CCC(Oc2ccc(N3CCC[C@@H]3c3csc(NC(=O)c4cccn4Cc4ccnc(F)c4)n3)nc2)CC1 [Compound A154, (R)-N-(4-(1-(5-((1-acetylpiperidin-4-yl)oxy)pyridin-2-yl)pyrrolidin-2-yl)thiazol-2-yl)-1-((2-fluoropyridin-4-yl)methyl)-1H-pyrrole-2-carboxamide] | 0.22 | > 25000 | 18.3 | 135 | 2.1 | 16 | 64.5 | 1520 | 643 | 9.97 | 127 | 1.29
8 | CC(=O)N1CCC(Oc2ccc(N3CCC[C@@H]3c3csc(NC(=O)c4cccn4Cc4ccnc(F)c4)n3)cn2)CC1 [Compound A155, (R)-N-(4-(1-(6-((1-acetylpiperidin-4-yl)oxy)pyridin-3-yl)pyrrolidin-2-yl)thiazol-2-yl)-1-((2-fluoropyridin-4-yl)methyl)-1H-pyrrole-2-carboxamide] | 0.17 | > 25000 | 16.9 | 189 | 2.4 | 8.23 | 80 | 2860 | 1340 | 16.8 | 86.6 | 1.07
9 | NC(=O)N1CCC(Oc2ccc(N3CCC[C@@H]3c3csc(NC(=O)c4cccn4Cc4ccnc(F)c4)n3)nc2)CC1 [Compound A156, (R)-4-((6-(2-(2-(1-((2-fluoropyridin-4-yl)methyl)-1H-pyrrole-2-carboxamido)thiazol-4-yl)pyrrolidin-1-yl)pyridin-3-yl)oxy)piperidine-1-carboxamide] | 1.75 | > 25000 | 38.2 | 349 | 3 | 34.1 | 115 | 2960 | 1560 | 13.5 | 273 | 10.3

Reference: patent US20230286973A1, “PROTEIN SECRETION INHIBITORS” (KEZAR LIFE SCIENCES, priority 2020, published 2023)
